Entries after “also recorded” stand apart in the source; their conditions may differ.

The text below walks through data of patent US20210355421A1, “DEVICES AND METHODS FOR PRODUCTION OF CELL AGGREGATES” (priority 2007, published 2021).

The test system of series [1] is hESC. Nature of the series: forced aggregation of hESC with or without ROCK inhibitor Y-27632. Type of series: cell-based, human. Here is the method:
• 1. […] The precise degree of pre-differentiation that is optimal will vary with the cell line in question, exact maintenance techniques, etc. If EB coherence is still insufficient after treatment as above, pre-differentiation can be started earlier (i.e the duration increased) or (if using BMPs), BMP concentration can be increased. […] Prepare low-adsorbance well plates: • a) dispense 40 μL (for 96-well plates) or 25 μL (for 384-well plates) of 5% Pluronic acid in PBS into the plates • b) incubate 30 minutes at room temperature • c) remove pluronic acid solution by pipetting or by inverted centrifugation in the device described and illustrated in FIG. 1 or 2 for 1 minute at 240×g • 3. Prepare a single-cell suspension by treating the hESC culture with TrypIE for 5 minutes, and washing the cells off with X-Vivo10 • 4. Count cells, spin down and re-suspend to 1 million cells/mL in X-Vivo or other medium of interest. Cells may all derive from a single culture, or cells from different sources may be combined. • 5. […] In the absence of both, no aggregates were formed (N.D.—size not determined). […]

The test system of series [2] is hESC. The experiment in a line: aggregate formation from hESC cultured on Matrigel after BMP pre-differentiation. Type of series: cell-based, human. The following applies: 50 ng/mL BMP4 pre-differentiation, control population did not form aggregates.
Experimental: The precise degree of pre-differentiation that is optimal will vary with the cell line in question, exact maintenance techniques, etc. […] Prepare low-adsorbance well plates: • a) dispense 40 μL (for 96-well plates) or 25 μL (for 384-well plates) of 5% Pluronic acid in PBS into the plates • b) incubate 30 minutes at room temperature • c) remove pluronic acid solution by pipetting or by inverted centrifugation in the device described and illustrated in FIG. 1 or 2 for 1 minute at 240×g • 3. Prepare a single-cell suspension by treating the hESC culture with TrypIE for 5 minutes, and washing the cells off with X-Vivo10 • 4. Count cells, spin down and re-suspend to 1 million cells/mL in X-Vivo or other medium of interest. Cells may all derive from a single culture, or cells from different sources may be combined. • 5. […]

For `C[C@@H](N)[C@H]1CC[C@H](C(=O)Nc2ccncc2)CC1` [Y-27632], the “aggregate size and symmetry” value with hESC [1] (10 μM Y-27632, hESC cultured on Matrigel, 2,000 cells per well, without or with 48 hours pre-differentiation in serum-containing medium) was “substantially increased aggregate size and symmetry; also recorded: size and symmetry of aggregates are improved”. For the same molecule, the “SISO-aggregate formation / aggregate stability” value in the series with hESC [1] (10 μM Y-27632 added to cell suspension immediately prior to dispensing, hESC on Matrigel in MEF-conditioned medium, without or with pre-differentiation) is reported as “sizeable aggregates resulted”.

“BMP4: bone morphogenetic protein used as growth factor for pre-differentiation”: the “stable aggregate formation after BMP4 pre-differentiation” value in the series on hESC [2] was “Aggregates formed from the pre-differentiated population”.
